Holding throughout (test): HMT selectivity panel (Reaction Biology)
Type in all cases: biochemical

The target in one assay is T1, EZH2 Complex (Homo sapiens, UniProt Q15910).
T1 construct: purchased Reaction Biology
To be noted: substrate Core Histone, read-out: Enzyme % Activity (relative to DMSO controls). The procedure:
(§1) Table S1: Selectivity of the compound on a HMT panel (by Reaction Biology, USA) and on hDNMT3Acat (as described in Ceccaldi
(§2) Enzyme % Activity (relative to DMSO
(§3) Testing Concentration 10µM
(§4) Methyltransferase: Substrate: Activity enzyme in %

For another assay, the target named is T2, PRMT6 (Homo sapiens, UniProt Q96LA8).
T2 construct: purchased Reaction Biology
As to conditions: substrate GST-GAR, read-out: Enzyme % Activity (relative to DMSO controls). The procedure: as §1, §2, §3, §4

In another assay the target is T3, G9a (Homo sapiens, UniProt Q96KQ7).
T3 construct: purchased Reaction Biology
T3 sequence (Q96KQ7 1-1210): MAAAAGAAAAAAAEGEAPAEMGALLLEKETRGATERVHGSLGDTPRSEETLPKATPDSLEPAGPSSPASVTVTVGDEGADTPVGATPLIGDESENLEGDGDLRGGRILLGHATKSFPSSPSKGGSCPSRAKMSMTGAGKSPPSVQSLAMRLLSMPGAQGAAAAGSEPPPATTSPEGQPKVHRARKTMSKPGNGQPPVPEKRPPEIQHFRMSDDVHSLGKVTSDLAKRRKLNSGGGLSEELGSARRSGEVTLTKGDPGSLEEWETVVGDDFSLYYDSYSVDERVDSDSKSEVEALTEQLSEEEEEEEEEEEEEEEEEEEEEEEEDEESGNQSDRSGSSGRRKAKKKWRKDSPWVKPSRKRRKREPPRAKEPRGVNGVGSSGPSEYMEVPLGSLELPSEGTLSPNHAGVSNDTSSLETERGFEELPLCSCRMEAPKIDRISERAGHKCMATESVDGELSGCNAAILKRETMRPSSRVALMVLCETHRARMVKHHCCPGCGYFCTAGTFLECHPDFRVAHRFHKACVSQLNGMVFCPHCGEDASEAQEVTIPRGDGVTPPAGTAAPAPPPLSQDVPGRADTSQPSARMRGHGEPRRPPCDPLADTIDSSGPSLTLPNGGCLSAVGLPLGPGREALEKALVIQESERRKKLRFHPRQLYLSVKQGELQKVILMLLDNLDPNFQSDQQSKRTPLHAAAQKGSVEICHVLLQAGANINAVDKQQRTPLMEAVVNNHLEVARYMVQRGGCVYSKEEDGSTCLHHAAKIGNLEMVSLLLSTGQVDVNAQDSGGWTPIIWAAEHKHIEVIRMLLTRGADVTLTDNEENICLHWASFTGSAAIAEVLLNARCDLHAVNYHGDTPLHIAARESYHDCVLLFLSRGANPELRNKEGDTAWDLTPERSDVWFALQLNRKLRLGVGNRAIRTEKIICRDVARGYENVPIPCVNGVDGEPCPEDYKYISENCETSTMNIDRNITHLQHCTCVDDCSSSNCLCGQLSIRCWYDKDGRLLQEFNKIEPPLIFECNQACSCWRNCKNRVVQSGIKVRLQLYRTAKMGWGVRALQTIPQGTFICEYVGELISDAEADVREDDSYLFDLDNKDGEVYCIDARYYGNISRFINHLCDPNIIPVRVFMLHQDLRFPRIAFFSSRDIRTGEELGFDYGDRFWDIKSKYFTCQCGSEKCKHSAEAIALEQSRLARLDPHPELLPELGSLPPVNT
As to conditions: substrate Histone H3 1-21, read-out: Enzyme % Activity (relative to DMSO controls). The procedure:
as §1, §2, §3, §4

SMILES strings stand for the structures.

T2 sequence (Q96LA8 whole entry): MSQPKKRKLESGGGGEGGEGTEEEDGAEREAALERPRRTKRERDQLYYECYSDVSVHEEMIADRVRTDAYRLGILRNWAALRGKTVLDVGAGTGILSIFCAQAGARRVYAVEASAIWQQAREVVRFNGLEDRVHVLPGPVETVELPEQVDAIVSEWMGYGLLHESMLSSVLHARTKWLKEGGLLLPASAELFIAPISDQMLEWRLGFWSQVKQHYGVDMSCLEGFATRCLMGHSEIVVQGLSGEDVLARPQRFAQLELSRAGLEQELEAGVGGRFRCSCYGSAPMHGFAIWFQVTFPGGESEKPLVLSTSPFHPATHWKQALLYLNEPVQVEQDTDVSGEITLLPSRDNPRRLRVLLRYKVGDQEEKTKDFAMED
T1 sequence (Q15910 2-746 limits assumed): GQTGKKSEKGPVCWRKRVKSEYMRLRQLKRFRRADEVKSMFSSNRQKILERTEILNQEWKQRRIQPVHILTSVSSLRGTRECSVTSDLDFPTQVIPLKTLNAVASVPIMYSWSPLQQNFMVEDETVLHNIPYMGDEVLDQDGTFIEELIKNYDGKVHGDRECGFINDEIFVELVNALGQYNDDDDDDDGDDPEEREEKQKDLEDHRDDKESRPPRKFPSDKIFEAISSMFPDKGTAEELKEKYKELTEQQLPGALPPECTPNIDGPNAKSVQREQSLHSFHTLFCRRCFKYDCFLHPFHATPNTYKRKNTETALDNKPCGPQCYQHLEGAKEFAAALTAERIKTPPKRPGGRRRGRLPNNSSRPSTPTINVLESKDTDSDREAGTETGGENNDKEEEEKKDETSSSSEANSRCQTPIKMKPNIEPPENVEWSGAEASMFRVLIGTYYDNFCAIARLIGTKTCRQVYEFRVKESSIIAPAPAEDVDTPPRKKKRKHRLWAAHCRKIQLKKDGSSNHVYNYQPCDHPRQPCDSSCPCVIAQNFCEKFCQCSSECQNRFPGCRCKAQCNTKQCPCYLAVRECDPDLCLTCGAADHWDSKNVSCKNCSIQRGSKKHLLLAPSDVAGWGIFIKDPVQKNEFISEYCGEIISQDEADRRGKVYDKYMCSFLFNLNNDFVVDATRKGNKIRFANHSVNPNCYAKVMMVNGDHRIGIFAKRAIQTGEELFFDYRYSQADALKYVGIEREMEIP
T1 sequence (O75530 2-441 partner limits assumed): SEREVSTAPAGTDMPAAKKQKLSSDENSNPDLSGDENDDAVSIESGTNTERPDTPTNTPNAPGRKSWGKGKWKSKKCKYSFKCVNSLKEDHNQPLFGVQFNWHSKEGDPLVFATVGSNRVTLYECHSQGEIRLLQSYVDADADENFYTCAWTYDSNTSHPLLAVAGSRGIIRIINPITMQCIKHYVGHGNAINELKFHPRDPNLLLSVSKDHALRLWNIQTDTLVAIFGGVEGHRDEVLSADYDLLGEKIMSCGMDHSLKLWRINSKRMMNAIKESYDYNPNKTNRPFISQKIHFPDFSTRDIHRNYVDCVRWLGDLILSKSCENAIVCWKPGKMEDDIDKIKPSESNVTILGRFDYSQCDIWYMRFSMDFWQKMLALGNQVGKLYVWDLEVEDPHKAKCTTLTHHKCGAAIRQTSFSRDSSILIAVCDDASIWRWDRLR
T1 sequence (Q15022 2-739 partner limits assumed): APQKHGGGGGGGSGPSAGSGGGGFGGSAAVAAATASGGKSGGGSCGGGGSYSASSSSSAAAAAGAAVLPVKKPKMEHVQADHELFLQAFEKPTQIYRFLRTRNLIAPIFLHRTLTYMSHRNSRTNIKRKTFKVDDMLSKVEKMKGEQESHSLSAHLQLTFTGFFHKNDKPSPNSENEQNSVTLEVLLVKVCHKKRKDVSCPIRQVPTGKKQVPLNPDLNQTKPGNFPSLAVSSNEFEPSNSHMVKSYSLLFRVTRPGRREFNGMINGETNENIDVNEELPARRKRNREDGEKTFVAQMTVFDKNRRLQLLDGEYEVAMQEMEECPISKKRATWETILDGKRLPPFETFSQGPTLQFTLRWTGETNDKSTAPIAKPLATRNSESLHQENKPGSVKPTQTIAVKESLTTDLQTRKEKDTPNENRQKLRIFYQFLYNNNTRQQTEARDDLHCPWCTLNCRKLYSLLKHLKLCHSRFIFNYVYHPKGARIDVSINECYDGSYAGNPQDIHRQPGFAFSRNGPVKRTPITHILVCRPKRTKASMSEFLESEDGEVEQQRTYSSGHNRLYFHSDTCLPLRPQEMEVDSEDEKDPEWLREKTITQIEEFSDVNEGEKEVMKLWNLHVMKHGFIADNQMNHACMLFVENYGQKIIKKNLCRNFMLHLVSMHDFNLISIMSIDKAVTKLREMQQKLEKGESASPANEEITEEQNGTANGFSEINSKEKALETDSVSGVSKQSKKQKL
T1 sequence (Q09028 2-425 partner limits assumed): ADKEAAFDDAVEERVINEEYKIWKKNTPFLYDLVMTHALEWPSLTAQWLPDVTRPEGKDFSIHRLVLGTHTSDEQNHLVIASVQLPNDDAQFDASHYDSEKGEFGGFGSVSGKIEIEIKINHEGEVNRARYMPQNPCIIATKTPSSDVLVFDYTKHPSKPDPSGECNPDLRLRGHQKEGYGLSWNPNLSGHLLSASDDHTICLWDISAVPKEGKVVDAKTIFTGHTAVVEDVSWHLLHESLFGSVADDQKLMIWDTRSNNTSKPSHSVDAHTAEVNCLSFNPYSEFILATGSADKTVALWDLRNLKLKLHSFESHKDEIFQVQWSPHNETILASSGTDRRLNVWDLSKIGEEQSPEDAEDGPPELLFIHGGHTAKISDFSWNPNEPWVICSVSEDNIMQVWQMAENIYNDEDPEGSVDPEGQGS
T1 sequence (Q6ZN18 whole entry partner): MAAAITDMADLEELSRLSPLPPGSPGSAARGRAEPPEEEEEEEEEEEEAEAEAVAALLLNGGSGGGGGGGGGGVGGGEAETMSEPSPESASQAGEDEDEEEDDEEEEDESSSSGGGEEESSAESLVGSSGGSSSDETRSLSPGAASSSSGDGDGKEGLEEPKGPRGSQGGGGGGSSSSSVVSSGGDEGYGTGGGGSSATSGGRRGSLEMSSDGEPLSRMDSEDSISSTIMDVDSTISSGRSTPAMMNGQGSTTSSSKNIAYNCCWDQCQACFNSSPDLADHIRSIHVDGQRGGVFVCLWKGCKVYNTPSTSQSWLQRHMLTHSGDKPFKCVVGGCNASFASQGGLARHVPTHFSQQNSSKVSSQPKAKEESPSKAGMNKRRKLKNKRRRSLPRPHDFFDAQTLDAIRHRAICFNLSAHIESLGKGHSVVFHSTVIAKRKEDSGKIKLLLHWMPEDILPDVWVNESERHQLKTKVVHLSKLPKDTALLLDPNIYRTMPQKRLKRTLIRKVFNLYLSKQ

Regarding `CC(C)[C@H](CCCNC(=O)Nc1ccc(C(C)(C)C)cc1)N[C@H]1C[C@@H](n2cnc3c(N)ncnc32)[C@H](O)[C@@H]1O` [Dia2, 1-((S)-4-(((1S,2R,3S,4R)-4-(6-amino-9H-purin-9-yl)-2,3-dihydroxycyclopentyl)amino)-5-methylhexyl)-3-(4-(tert-butyl)phenyl)urea], the results for the remaining activity at 10 µM on EZH2 Complex, on PRMT6 and on G9a were 86 ± 1%, 95 ± 1% and 97 ± 1%, respectively.

These data come from PMC8434109, “Synthesis and Biological Activity of a Cytostatic Inhibitor of MLLr Leukemia Targeting the DOT1L Protein” (Molecules, 2021).
